In patent publication US20110243855A1, “METHOD AND IMAGING MEDIUM FOR USE IN THE METHOD” (priority 2007, published 2011):

Columns and labels:
[1] = Solid state polarisation after DNP, followed by solid state 13C-NMR; type: physicochemical; settings: DNP at 1.2 K, 3.35 T, microwave 93.89 GHz, trityl radical and Gd-chelate
From the text: The level of polarisation may for instance be determined by solid state ^13C-NMR measurements in solid hyperpolarised ^13C-acetate, e.g. solid hyperpolarised ^13C-acetate obtained by dynamic nuclear polarisation (DNP) of ^13C-acetate. The solid state ^13C-NMR measurement preferably consists of a simple pulse-acquire NMR sequence using a low flip angle. The signal intensity of the hyperpolarised ^13C-acetate in the NMR spectrum is compared with signal intensity of ^13C-acetate in a NMR spectrum acquired before the polarisation process. The level of polarisation is then calculated from the ratio of the signal intensities of before and after polarisation.
The probe is inserted into the probe-retaining container, submerged in the liquid helium and irradiated with microwaves. The microwave frequency may be determined from the EPR line of the DNP agent, which depends on the magnetic field of the magnet as 28.0 GHz/T. The optimal microwave frequency may be determined by adjusting the frequency for maximal NMR signal. Preferably, the optimal microwave frequency is in the about 94 GHz for a magnet charged to 3.35 T, 110 GHz for a magnet charged to 4 T, 140 GHz for a magnet charged to 5 T and 200 GHz for a magnet charged to 7 T. The power may be chosen between 50 and 200 mW, dependent on the probe size. The level of polarisation may be monitored as earlier described by for instance acquiring solid state ^13C-NMR signals of the probe during microwave irradiation. Generally, a saturation curve is obtained in a graph showing NMR signal vs. time. […] A solid state ^13C-NMR measurement suitably consists of a simple pulse-acquire NMR sequence using a low flip angle. […] The polarisation is then calculated from the ratio of the signal intensities before and after DNP.
To a micro test tube was added sodium ^13C1-acetate (Aldrich, 24.9 mg, 0.30 mmol) and 16 μl water. […] Polarisation was followed by solid state ^13C-NMR and the solid state polarisation was determined to be more than 20%. […]

[2] = Liquid state polarisation of the dissolved imaging medium by liquid state 13C-NMR; type: physicochemical; settings: for liquid state polarisation: liquid state 13C-NMR at 400 MHz, after 75 min DNP, dissolved in phosphate buffer pH 7, 50 mM
Protocol: In a similar way, the level of polarisation for dissolved hyperpolarised ^13C-acetate may be determined by liquid state NMR measurements. Again the signal intensity of the dissolved hyperpolarised ^13C-acetate is compared with the signal intensity of the dissolved ^13C-acetate before polarisation. The level of polarisation is then calculated from the ratio of the signal intensities of ^13C-acetate before and after polarisation. Hyperpolarisation of NMR active ^13C-nuclei may be achieved by different methods which are for instance described in described in WO-A-98/30918, WO-A-99/24080 and WO-A-99/35508, and which all are incorporated herein by reference and hyperpolarisation methods known in the art are polarisation transfer from a noble gas, “brute force”, spin refrigeration, the parahydrogen method and dynamic nuclear polarisation (DNP).
(§1) After 75 minutes of dynamic nuclear polarisation, the obtained frozen polarised composition was dissolved in 6 ml phosphate buffer (20 mM, pH 7, 100 mg/l EDTA, 0.9% NaCl). The pH of the final solution containing the dissolved composition was 7.3±0.1. The sodium ^13C1-acetate concentration in said final solution was 50 mM.
Liquid state polarisation was determined by liquid state ^13C-NMR at 400 MHz to be 19%.
as §1, with “TRIS-^13C1-acetate-d3” for “sodium ^13C1-acetate”
Liquid state polarisation was determined by liquid state ^13C-NMR at 400 MHz to be 32%.

[3] = test system: mouse myocardium; assay: In vivo 13C-MR spectroscopy in mice (heart), conversion of hyperpolarised 13C-acetate to 13C-acetyl-CoA and 13C-acetylcarnitine; set-up: species or system C57Bl/6 mouse
Protocol: 200 μl of an imaging medium which was prepared as described in Example 3a was injected into a C57Bl/6 mouse over a time period of 6 s. The TRIS-^13C1-acetate concentration in said imaging medium was 75 mM and the polarisation was 20% at the time of injection. A ^13C-surface coil (diameter 12 mm) was placed over the mouse myocardium. A rat ^1H-body coil was used for anatomical reference images and localised shimming. ^13C-MR spectroscopy was carried out with a 2.4 T Bruker spectrometer. A dynamic set of ^13C-MR spectra (in total 30) was acquired every 3 s with a 30 degree RF pulse. From this experiment a ^13C1-acetylcarnitine signal build-up over the time of the experiment was clearly seen (FIG. 1).
(§2) 200 μl of an imaging medium which was prepared as described in Example 3a was injected into a C57Bl/6 mouse over a time period of 6 s. The TRIS-^13C1-acetate concentration in said imaging medium was approx. 50 mM. In both experiments (n=2) a ^13C-surface coil (diameter 12 mm) was placed over the mouse myocardium and ^13C-MR spectroscopy was carried out in a 2.4 T Bruker spectrometer. A spectrum was acquired 10 s after the imaging medium had been injected with a 90 degree RF pulse. […] The ratio of ^13C1-acetylcarnitine to ^13C1-acetyl-CoA was roughly 3 times higher in the heart than in the liver, see Example 6.

[4] = test system: mouse liver; assay: In vivo 13C-MR spectroscopy in mice (liver), conversion of hyperpolarised 13C-acetate to 13C-acetyl-CoA and 13C-acetylcarnitine; set-up: species or system C57Bl/6 mouse; settings: 200 μl of approx. 50 mM, spectrum 10 s after injection, 90 degree pulse, n=2 (FIG. 2, 3)
Protocol: as §2, with “liver” for “myocardium”, “lower” for “higher”, “5.” for “6.”

| solid state polarisation [1] | liquid state polarisation [2] | 13C1-acetylcarnitine signal build-up over the time of the experiment ([3]; 200 μl of 75 mM injected over 6 s, 30 spectra every 3 s, 30 degree pulse, 2.4 T (FIG. 1)) | identification of 13C1-acetyl-CoA and 13C1-acetylcarnitine ([3]; 200 μl of approx. 50 mM, spectrum 10 s after injection, 90 degree pulse, n=2 (FIG. 2, 3)) | identification of 13C1-acetyl-CoA and 13C1-acetylcarnitine [4] | polarisation at the time of injection ([2]; imaging medium 75 mM, at the time of injection into mouse) | Structure (SMILES) |
| --- | --- | --- | --- | --- | --- | --- |
| more than 25% | 32% | – | – | – | – | NC(CO)(CO)CO.[2H]C([2H])([2H])[13C](=O)O [TRIS-^13C1-acetate-d3] |
| more than 25% | – | clearly seen | could be identified | could be identified | 20% | C[13C](=O)O.NC(CO)(CO)CO [TRIS-^13C1-acetate] |
| more than 20% | 19% | – | – | – | – | C[13C](=O)[O-].[Na+] [sodium ^13C1-acetate] |
